Laboratory results taken from PMC4757855, “Discovery of high affinity inhibitors of Leishmania donovani N-myristoyltransferase” (Medchemcomm, 2015).
Entries after “also recorded” stand apart in the source; their conditions may differ. Read-outs that look alike come from different tables or passages of the source. Blank lines part the entries; values can stand above or below the compound they belong to.

Key:
[1] = biological target: LdNMT (Leishmania donovani, UniProt D0AB09); assay: biochemical; type: biochemical; settings: for Ki: apparent Ki calculated from IC50 with Cheng–Prusoff equation
Protocol: (§1) Enzyme assay information. All IC 50 determinations were carried out using a 7-diethylamine-3-(4’maleimidylphenyl)-4-methylcoumarin (CPM) fluorescence assay, as described by previously. 2–4 The HsNMT1, PfNMT and PvNMT assays are as described in the literature, for LdNMT the final enzyme concentration and peptide substrates are: [LdNMT]: 400 ng/mL; LdNMT Peptide Substrate: Homo sapiens […]
(§2) was 4.0 μM. IC 50 of an inhibitor was calculated by a nonlinear regression analysis using GraFit 7.0.1 version (Erithacus Software Limited, UK).The values are the mean […]
(§3) Ki values were calculated from the experimentally determined IC 50 values, the substrate concentration ([S]) and the Michaelis-Menten constant (K m) as described by […]

[2] = test system: LdNMT; assay: biochemical; type: biochemical
Protocol: as §1, §2, §3

[3] = biological target: T1, HsNMT1 (Homo sapiens, UniProt P30419); assay: HsNMT1 enzyme assay (CPM fluorescence); type: biochemical; settings: apparent Ki calculated from IC50 with Cheng–Prusoff equation, read-out: HsNMT Ki
T1 sequence (P30419 1-496): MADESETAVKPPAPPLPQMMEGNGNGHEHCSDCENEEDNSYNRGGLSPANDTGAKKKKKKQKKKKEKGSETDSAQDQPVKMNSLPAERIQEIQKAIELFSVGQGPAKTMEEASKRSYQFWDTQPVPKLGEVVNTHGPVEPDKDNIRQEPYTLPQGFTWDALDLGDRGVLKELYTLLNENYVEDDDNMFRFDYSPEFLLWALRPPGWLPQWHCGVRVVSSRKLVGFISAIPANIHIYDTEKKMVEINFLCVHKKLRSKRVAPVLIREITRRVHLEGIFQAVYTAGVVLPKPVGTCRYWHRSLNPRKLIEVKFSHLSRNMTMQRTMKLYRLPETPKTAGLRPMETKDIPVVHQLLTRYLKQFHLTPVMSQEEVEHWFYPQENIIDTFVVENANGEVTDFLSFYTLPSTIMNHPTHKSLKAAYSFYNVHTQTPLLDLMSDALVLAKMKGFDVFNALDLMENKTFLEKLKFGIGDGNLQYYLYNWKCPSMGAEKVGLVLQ
Protocol: Enzyme assay information. All IC 50 determinations were carried out using a 7-diethylamine-3-(4’maleimidylphenyl)-4-methylcoumarin (CPM) fluorescence assay, as described by previously. […]
IC 50 of an inhibitor was calculated by a nonlinear regression analysis using GraFit 7.0.1 version (Erithacus Software Limited, UK).The values are the mean […]
as §3

[4] = test system: L. donovani amastigotes; assay: L. donovani ex-vivo amastigotes inhibition assay (alamar blue); type: cell-based, Leishmania donovani; settings: for EC50: Leishmania donovani, ex vivo L. donovani amastigotes, 72 hour incubation, read-out: Ld EC50
Protocol: L. donovani ex-vivo amastigotes inhibition assay. Assays were carried out as
described by Paape and colleagues.
recorded with a 590nm±10nm bandpass filter, POLARstar Optima). Parasites cultured
[1-(readout-medium)/(positive-medium)] x 100%. Assays were carried out in
Macrophage toxicity test. Assays were carried out as described by Paape and […]

[5] = biological target: T2, PfNMT (Plasmodium falciparum, UniProt Q9U419); assay: biochemical; type: biochemical; settings: for PfNMT LE: LE = [–log(Ki)](1.374)/(no. of heavy atoms); for Ki: apparent Ki calculated from IC50 with Cheng–Prusoff equation
T2 sequence (Q9U419 1-410): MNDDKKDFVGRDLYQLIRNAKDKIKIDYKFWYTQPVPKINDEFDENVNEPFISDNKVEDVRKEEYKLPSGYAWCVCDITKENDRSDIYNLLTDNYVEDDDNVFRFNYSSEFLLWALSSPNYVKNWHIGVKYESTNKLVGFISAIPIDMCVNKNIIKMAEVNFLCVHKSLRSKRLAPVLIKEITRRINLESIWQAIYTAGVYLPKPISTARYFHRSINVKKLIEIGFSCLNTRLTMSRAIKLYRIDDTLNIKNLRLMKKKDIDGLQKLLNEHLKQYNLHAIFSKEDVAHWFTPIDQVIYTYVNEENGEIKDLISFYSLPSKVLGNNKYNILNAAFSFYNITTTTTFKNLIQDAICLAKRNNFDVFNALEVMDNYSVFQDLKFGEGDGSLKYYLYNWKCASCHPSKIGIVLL
Protocol: as §1
(§4) p60src (2-16) with sequence […]-NH 2 and the final concentration was 4.0 μM. IC 50 of an inhibitor was calculated by a nonlinear regression analysis using GraFit 7.0.1 version (Erithacus Software Limited, UK).The values are the mean value of two determinations; standard deviation is within 20% of the IC 50 unless […]
as §3

[6] = biological target: T3, PvNMT (Plasmodium vivax, UniProt A5K1A2); assay: biochemical; type: biochemical; settings: for PvNMT LE: LE = [–log(Ki)](1.374)/(no. of heavy atoms); for Ki: apparent Ki calculated from IC50 with Cheng–Prusoff equation
T3 sequence (A5K1A2 1-410): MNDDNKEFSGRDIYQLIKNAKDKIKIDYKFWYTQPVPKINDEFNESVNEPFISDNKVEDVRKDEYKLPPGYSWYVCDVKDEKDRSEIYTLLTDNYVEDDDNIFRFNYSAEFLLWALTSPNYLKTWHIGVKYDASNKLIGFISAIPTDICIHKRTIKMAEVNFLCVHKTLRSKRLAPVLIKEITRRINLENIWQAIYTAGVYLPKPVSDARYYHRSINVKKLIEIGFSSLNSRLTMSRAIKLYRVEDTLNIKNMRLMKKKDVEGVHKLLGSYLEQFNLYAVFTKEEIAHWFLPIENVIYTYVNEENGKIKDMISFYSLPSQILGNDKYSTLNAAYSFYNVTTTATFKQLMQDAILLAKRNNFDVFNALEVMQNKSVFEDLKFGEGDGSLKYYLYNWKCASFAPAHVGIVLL
Protocol: as §1, §4, §3

[7] = test system: bone marrow-derived macrophage (BMDM); settings: 72 h
Protocol: (§5) colleagues.6 Briefly, bone marrow-derived macrophage (BMDM, 4.2 × 10^4/well of
(§6) 96-well plate ) were incubated at the relevant concentrations of test compounds in
(§7) DMEM medium containing 4% L929 cell and 10% FCS (fetal calf serum). Cells were
(§8) incubated at 37 °C and 5% CO2 for 72 hours. Aalamar blue (10% v/v) was added to
(§9) measuring the fluorescence as described above. Medium without cells containing the
(§10) corresponding concentration of compound was used as a medium control. Assays
were performed in duplicate.

[8] = test system: bone marrow-derived macrophage (BMDM); assay: Macrophage toxicity test (alamar blue); settings: top concentration tested 90 μM
Protocol: as §5, §6, §7, §8, §9, §10
were performed in duplicate.

[9] = Stability on incubation over a wide pH range; type: physicochemical; settings: 37 °C, pH 1–10, 24 hours, data not shown
Excerpt: The binding mode of 10j to Leishmania major NMT (98% sequence identity to LdNMT with closely superimposable ligand binding sites)[14],[29] was confirmed by determination of the crystal structure of the ternary complex of LmNMT, myrisotyl-CoA and 10j (PDB ID:; 5a27). The inhibitor binds in the expected site adjacent to the enzyme's C-terminal carboxylate to which its piperidine forms an ion pairing interaction. This and other key interactions are conserved in a related series in PvNMT.[24] […] This ‘ring opening’ phenomenon has been observed in related compounds within the program,[27] although to our knowledge, it has not been reported elsewhere. The origin of the ring-opened species observed in the crystals remains unclear, and further investigation is underway to determine the cause of this discrepancy (such as potential radiation damage). As characterisation of the compounds was consistent with the proposed oxadiazoles, the development of the series was continued.

Sequence of LdNMT (Leishmania donovani, UniProt D0AB09) (D0AB09 entry or part of it): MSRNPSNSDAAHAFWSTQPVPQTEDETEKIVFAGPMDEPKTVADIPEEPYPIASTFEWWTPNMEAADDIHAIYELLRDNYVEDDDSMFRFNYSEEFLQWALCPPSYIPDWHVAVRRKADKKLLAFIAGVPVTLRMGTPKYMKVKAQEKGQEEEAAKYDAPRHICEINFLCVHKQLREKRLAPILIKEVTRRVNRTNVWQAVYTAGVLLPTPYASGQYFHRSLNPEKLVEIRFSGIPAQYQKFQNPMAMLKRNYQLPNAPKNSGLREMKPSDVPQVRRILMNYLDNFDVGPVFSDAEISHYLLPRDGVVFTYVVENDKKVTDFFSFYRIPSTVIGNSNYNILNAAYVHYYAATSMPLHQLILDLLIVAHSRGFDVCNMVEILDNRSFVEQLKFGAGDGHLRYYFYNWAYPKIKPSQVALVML

LdNMT LE [1]: 0.37 | improvement in LdNMT enzyme affinity ([1]; 5 relative to 1, 10a relative to 6): ~ 4 fold | selectivity in favour of the parasite enzyme (LdNMT over HsNMT) [2]: 20 fold | Ki [3]: 1.24 µM | EC50 [4]: > 30 µM
SMILES: COc1cccc(Cc2noc(-c3ccccc3OC3CCNCC3)n2)c1 [Compound 10a]

LdNMT LE [1]: 0.35 | improvement in LdNMT enzyme affinity [1]: 8 fold | Ki ([1]; […], read-out: LdNMT Ki): 730 nM | IC50 ([1]; experimentally determined, substrate 4.0 μM): 820 ± 140 nM | Ki [3]: > 100 µM | Ki [5]: > 100 µM | PvNMT LE [6]: 0.30 | Ki [6]: 6500 nM
SMILES: COc1cccc(COC(=O)c2sccc2OC2CCNCC2)c1 [Compound 5]

LdNMT LE [1]: 0.26 | Ki ([1]; […], read-out: LdNMT Ki): 5180 nM | Ki [3]: 4.64 µM
SMILES: COc1cccc(Cc2noc(-c3ccc(C)cc3OC3CCNCC3)n2)c1 [Compound 10d]

LdNMT LE [1]: 0.29 | Ki ([1]; […], read-out: LdNMT Ki): 1430 nM | Ki [3]: 7.44 µM
SMILES: COc1cccc(Cc2noc(-c3cccc(C)c3OC3CCNCC3)n2)c1 [Compound 10c]

Ki ([1]; […], read-out: LdNMT Ki): 680 nM
SMILES: COc1cccc(Cc2noc(-c3ccc(Br)cc3OC3CCNCC3)n2)c1 [Compound 10h]

LdNMT LE [1]: 0.26 | Ki ([1]; […], read-out: LdNMT Ki): 4020 nM | Ki [3]: 7.23 µM
SMILES: COc1cccc(Cc2noc(-c3cccc(OC)c3OC3CCNCC3)n2)c1 [Compound 10b]

LdNMT LE [1]: 0.36 | Ki ([1]; […], read-out: LdNMT Ki): 280 nM | Ki [3]: > 100 µM | PfNMT LE [5]: 0.29 | Ki [5]: 6 µM | PvNMT LE [6]: 0.31 | Ki [6]: 2420 nM
SMILES: COc1cccc(COC(=O)c2ccccc2OC2CCNCC2)c1 [Compound 6]

Ki ([1]; […], read-out: LdNMT Ki): 240 nM
SMILES: COc1cccc(Cc2noc(-c3cc(C)ccc3OC3CCNCC3)n2)c1 [Compound 10i]

Ki ([1]; […], read-out: LdNMT Ki): 3040 nM
SMILES: COc1cccc(Cc2noc(-c3ccc(OC)cc3OC3CCNCC3)n2)c1 [Compound 10e]

Continued, compound first:

SMILES: COc1cccc(COC(=O)c2sc3ccccc3c2OC2CCNCC2)c1 [Compound 1]
Ki ([1]; […], read-out: LdNMT Ki): 5820 nM | Ki [3]: 3.2 µM | PfNMT LE [5]: 0.30 | Ki [5]: 0.83 µM | PvNMT LE [6]: 0.35 | Ki [6]: 80 nM

SMILES: COc1cccc(Cc2noc(-c3cc(OC)ccc3OC3CCNCC3)n2)c1 [Compound 10k]
Macrophage LD50 [7]: 27.9 µM | EC50 [4]: 13.5 µM

SMILES: Cc1nn(C)c(C)c1Cc1nnc(-c2cc(Cl)ccc2OC2CCNCC2)o1 [Compound 13]
Ki ([1]; […], read-out: LdNMT Ki): 10 nM | Macrophage LD50 [7]: >90 µM | EC50 [4]: > 50 µM | effect against ex vivo amastigotes ([4]; up to 50 μM): no observed effect; also recorded: failed to inhibit | macrophage toxicity [8]: did not display any macrophage toxicity; also recorded: no macrophage toxicity

SMILES: COc1cccc(Cc2noc(-c3ccc(F)cc3OC3CCNCC3)n2)c1 [Compound 10g]
Macrophage LD50 [7]: 29.5 µM

SMILES: COc1cccc(Cc2noc(-c3cc(Cl)ccc3OC3CCNCC3)n2)c1 [Compound 10j]
Macrophage LD50 [7]: 18.0 µM | EC50 [4]: 6.7 µM | degradation on incubation [9]: no degradation
